Like-named read-outs stand apart in the source and are kept apart here.
Legend:
SARS-CoV-2 M^pro = SARS-CoV-2 M^pro (Severe acute respiratory syndrome coronavirus 2 (2019-nCoV) (SARS-CoV-2), UniProt P0DTD1); assay: biochemical
SARS-CoV-2 = assay: microbe, parasite or virus in culture; type: cell-based
Vero E6 cells = assay: Cytotoxicity in Vero E6 cells (neutral red uptake); settings: read-out: CC50 in Vero E6 cells
in vitro = settings: African green monkey, Vero E6 Cytotoxicity CC50 (μM)
[1] = Severe acute respiratory syndrome coronavirus 2, Vero C1008; read-out: SARS-COV-2 antiviral activity using immunofluorescence assay EC50
[2] = read-out: IC50 against SARS-CoV-2 M^pro
[3] = read-out: SARS-COV-2 main protease enzymatic inhibition IC50
[4] = SARS-COV-2 main protease enzymatic inhibition IC50
[5] = Severe acute respiratory syndrome coronavirus 2, Vero C1008; Vero E6 cells, immunofluorescence assay; read-out: SARS-CoV-2 antiviral assay EC50
[6] = Severe acute respiratory syndrome coronavirus 2, Vero C1008; read-out: antiviral EC50 against SARS-CoV-2 in Vero E6 cells
[7] = read-out: SARS-CoV-2 M^pro IC50

C[C@H](NC(=O)C(c1cccnc1)N(C(=O)c1ccco1)c1ccc(-c2ccccc2)cc1)c1ccccc1 (single isomer, unassigned) [Compound 23S]
IC50 (SARS-CoV-2 M^pro; IC50 against SARS-CoV-2 M^pro): > 10 µM | IC50 (SARS-CoV-2 M^pro; SARS-CoV-2 M^pro IC50 (μM)): > 10 µM

C[C@H](NC(=O)C(c1cccnc1)N(C(=O)c1ccco1)c1ccc(-c2ccccc2)cc1)c1ccccc1 (single isomer, unassigned) [Jun8-76-3B]
EC50 (SARS-CoV-2 M^pro; SARS-COV-2 main protease enzymatic inhibition (separated diastereomers, printed as EC50)): 1.35 µM | EC50 (SARS-CoV-2; [1]): 2.97 µM

C[C@H](NC(=O)C(c1cccnc1)N(C(=O)c1ccno1)c1ccc(-c2ccccc2)cc1)c1ccccc1 (stereo partly shown) [Compound 25]
IC50 (SARS-CoV-2 M^pro; [2]): 2.47 ± 0.27 µM | CC50 (Vero E6 cells): > 100 µM

CC(C)(C)NC(=O)C(c1cnccn1)N(C(=O)c1ccco1)c1ccc(C(C)(C)C)cc1 (stereo not shown) [Compound 27]
CC50 (Vero E6 cells): > 100 µM

C[C@H](NC(=O)C(c1cccnc1)N(C(=O)c1ccno1)c1ccc(C2CCCCC2)cc1)c1ccccc1 (stereo partly shown) [Compound 36]
IC50 (SARS-CoV-2 M^pro; [2]): 0.81 ± 0.24 µM

O=C(NCC(c1ccccc1)c1ccccc1)C(c1cccnc1)N(C(=O)c1ccco1)c1ccc(-c2ccccc2)cc1 (stereo not shown) [Compound 39]
IC50 (SARS-CoV-2 M^pro; IC50 against SARS-CoV-2 M^pro): < 5 µM | CC50 (Vero E6 cells): > 100 µM

C[C@H](NC(=O)C(c1cccnc1)N(C(=O)c1ccco1)c1ccc(C(C)(C)C)cc1)c1ccccc1 (stereo partly shown) [Jun8-56-1]
IC50 (SARS-CoV-2 M^pro; [3]): 5.7 µM | EC50 (SARS-CoV-2; [1]): 17.2 µM

CC(C)(C)c1ccc(N(C(=O)c2ccco2)C(C(=O)NC2CC2)c2cccnc2)cc1 (stereo not shown) [Jun8-58-2]
IC50 (SARS-CoV-2 M^pro; [3]): 3.86 µM

C[C@H](NC(=O)C(c1cccnc1)N(C(=O)c1ccco1)c1ccc(C2CCCCC2)cc1)c1ccccc1 (stereo partly shown) [Jun8-66-1]
IC50 (SARS-CoV-2 M^pro; [3]): 0.51 µM

CC(C)(C)c1ccc(N(C(=O)c2ccco2)C(C(=O)NCn2nnc3ccccc32)c2cccnc2)cc1 (stereo not shown) [Jun8-74-1]
IC50 (SARS-CoV-2 M^pro; [3]): 8.13 µM

C[C@H](NC(=O)C(c1cccnc1)N(C(=O)c1ccco1)c1ccc([Si](C)(C)C)cc1)c1ccccc1 (stereo partly shown) [Jun8-75-2]
IC50 (SARS-CoV-2 M^pro; [3]): 1.97 µM | EC50 (SARS-CoV-2; Severe acute respiratory syndrome coronavirus 2, Vero C1008, read-out: SARS-COV-2 antiviral activity using immunofluorescence assay EC50): 8.84 µM

C[C@H](NC(=O)C(c1cccnc1)N(C(=O)c1ccco1)c1ccc(-c2ccccc2)cc1)c1ccccc1 (stereo partly shown) [Jun8-76-3]
IC50 (SARS-CoV-2 M^pro; IC50 against SARS-CoV-2 M^pro): < 3 µM | IC50 (SARS-CoV-2 M^pro; [4]): 0.31 µM | IC50 (SARS-CoV-2 M^pro; SARS-CoV-2 M^pro IC50 (μM)): 0.31 ± 0.13 µM | EC50 (SARS-CoV-2; [5]): 1.61 ± 0.29 µM | EC50 (SARS-CoV-2; [1]): 1.83 µM | EC50 (SARS-CoV-2; [6]): 0.82 to 4.54 µM | CC50 at 5 days (in vitro): > 200 µM | CC50 (Vero E6 cells): > 100 µM

C[C@H](NC(=O)C(c1cccnc1)N(C(=O)c1ccco1)c1ccc(-n2cccc2)cc1)c1ccccc1 (stereo partly shown) [Jun8-76-5]
IC50 (SARS-CoV-2 M^pro; IC50 against SARS-CoV-2 M^pro): < 3 µM | IC50 (SARS-CoV-2 M^pro; [3]): 0.94 µM | IC50 (SARS-CoV-2 M^pro; [7]): 0.94 ± 0.33 µM | Selectivity index SI CC50/EC50 (SARS-CoV-2): >115.6 | EC50 (SARS-CoV-2; [5]): 1.73 ± 0.19 µM | EC50 (SARS-CoV-2; [1]): 1.9 µM | EC50 (SARS-CoV-2; [6]): 0.82 to 4.54 µM | CC50 at 5 days (in vitro): > 200 µM | CC50 (Vero E6 cells): > 100 µM

CC(C)NC(=O)C(c1cccnc1)N(C(=O)c1ccco1)c1ccc(C(C)(C)C)cc1 (stereo not shown) [Jun8-88-1]
IC50 (SARS-CoV-2 M^pro; [3]): 5.37 µM

CC(C)(C)c1ccc(N(C(=O)c2ccco2)C(C(=O)NC2CCCC2)c2cccnc2)cc1 (stereo not shown) [Jun8-88-2]
IC50 (SARS-CoV-2 M^pro; [3]): 2.51 µM | EC50 (SARS-CoV-2; [1]): 12.9 µM

C[C@H](NC(=O)C(c1cccnc1)N(C(=O)c1c[nH]cn1)c1ccc(-c2ccccc2)cc1)c1ccccc1 (stereo partly shown) [Jun8-90-3]
IC50 (SARS-CoV-2 M^pro; [7]): 0.96 ± 0.09 µM | EC50 (SARS-CoV-2; [6]): 0.82 to 4.54 µM | CC50 at 5 days (in vitro): 129 ± 25.1 µM | CC50 (Vero E6 cells): > 100 µM

C[C@H](NC(=O)C(c1cccnc1)N(C(=O)c1ccco1)c1ccc(-c2cccs2)cc1)c1ccccc1 (stereo partly shown) [Jun8-91-4]
IC50 (SARS-CoV-2 M^pro; [4]): 14.6 µM

C[C@H](NC(=O)C(c1cccnc1)N(C(=O)c1ccco1)c1ccc(-c2ccco2)cc1)c1ccccc1 (stereo partly shown) [Jun8-91-5]
IC50 (SARS-CoV-2 M^pro; [3]): 2.54 µM

C[C@H](NC(=O)C(c1cccnc1)N(C(=O)c1ccco1)c1ccc(-c2cnn(C)c2)cc1)c1ccccc1 (stereo partly shown) [Jun8-91-6]
IC50 (SARS-CoV-2 M^pro; [4]): 37.3 µM

C[C@H](NC(=O)C(c1cccnc1)N(C(=O)c1cnco1)c1ccc(-c2ccccc2)cc1)c1ccccc1 (stereo partly shown) [Jun8-92-2]
IC50 (SARS-CoV-2 M^pro; [3]): 4.99 µM

C[C@H](NC(=O)C(c1cccnc1)N(C(=O)c1ccco1)c1ccc(Cc2ccccc2)cc1)c1ccccc1 (stereo partly shown) [Jun8-92-4]
IC50 (SARS-CoV-2 M^pro; [3]): 35.1 µM

— patent US20240083885A1, “COMPOSITIONS AND METHODS FOR INHIBITING M PRO PROTEASE ACTIVITY AND FOR PREVENTING AND TREATING SARS-COV-2 INFECTION” (priority 2020, published 2024)
